Reference: PMC3141655 (BMC Biochemistry, 2011)

Assays:
[1] = target: StOASS (O-acetylserine sulfhydrylase) (Salmonella typhimurium, UniProt P0A1E3); experiment: PLP fluorescence titration of ligands with StOASS; type: binding; parameters: His tag (N); made in house; host or cells: E. coli BL21(DE3), pET28a(+); conditions: similar experimental conditions as cysteine/methionine titrations
Protocol: Titrations of ligands with StOASS were examined by monitoring changes in the active site pyridoxal 5'phosphate (PLP) fluorescence of OASS using a Varian spectrofluorometer. The excitation and emission wavelengths for monitoring PLP signal change upon ligand binding were 412 nm and 507 nm respectively. All experiments were done at 23.0 ± 1°C. Slit widths were set to 5 nm for all experiments and PMT voltage was adjusted to get maximum signal for a given protein concentration. Initial readings of both the sample, Fsamp,0 and buffer, Fbuf,0 were taken, with F0 = Fsamp,0-Fbuf,0 defined as the initial fluorescence of the sample. The sample cuvette was then titrated with aliquots of ligands and mixed, equilibrated for 2-5 minutes before measurement. Data points from five such measurements were averaged to obtain Fave,i. The relative fluorescence quenching upon ligand binding is defined as Qobs,i = (F0-Fobs,i)/F0. All measurements were corrected for dilution, and inner filter effects.
Binding of ligands to OASS was analyzed to obtain the equilibrium binding constant, Kobs = [PL]/[P]*[L], using a single or two independent site binding models (eqn 1)(1) [drawing 1]
Where n, number of binding sites, Qobs, observed fluorescence quenching and Qmax, the maximum fluorescence quenching at saturation.

[2] = substrate: CC(=O)OC[C@H](N)C(=O)O; experiment: Steady state kinetic measurement of StOASS activity (ninhydrin-cysteine assay); type: biochemical, Salmonella typhimurium; conditions: other: 0.1M Hepes, pH 7.5, 30 °C, 2 mM Na2S, OAS 1-10 mM
Protocol: Steady state kinetic measurement of StOASS activity in the reaction buffer (as in Fig S2).
OASS activity was measured by monitoring the cysteine formation. Data were fitted to Michaelis-Menten equation using origin 5.0. The Km(OAS) was estimated to be 0.89 […]
Enzyme assay: Assay is based on the specific reaction of ninhydrin with cysteine under strong acidic conditions and monitoring of modified cysteine (ninhydrin-cysteine adduct) at 560 nm. The reaction was allowed to proceed for 20 minutes (30 °C, linear phase) with varied concentrations of OAS (1- 10 mM, 2 mM Na2S) in the reaction buffer (0.1M Hepes, pH 7.5, 150 µl reaction volume). The reaction was terminated with 5% TFA and centrifuged at 11000 rpm for 2 min. 125 µl glacial acetic acid + 125 µl acidic ninhydrin reagent were added to 125 µl of supernatant. Samples were boiled for 10 min at 100°C and cooled to room temperature. 600 µl of chilled absolute ethanol was added to the mix and the absorbance at 560 nm was used for determining the amount of cysteine present in the sample. Cysteine liberated was determined from a standard curve plotted by using known concentrations of cysteine.

Molecule | binding to OASS when presented as amino acid [1] | Km [2] [mM]
CC[C@H](C)[C@H](N)C(=O)O [isoleucine, L-isoleucine] | does not bind OASS | 
StOASS (Salmonella enterica subsp. enterica serovar Typhimurium str. LT2) (protein, His tag (N); made in house; host or cells: E. coli BL21(DE3), pET28a(+)) MSKIYEDNSLTIGHTPLVRLNRIGNGRILAKVESRNPSFSVKCRIGANMIWDAEKRGVLKPGVELVEPTSGNTGIALAYVAAARGYKLTLTMPETMSIERRKLLKALGANLVLTEGAKGMKGAIQKAEEIVASDPQKYLLLQQFSNPANPEIHEKTTGPEIWEDTDGQVDVFISGVGTGGTLTGVTRYIKGTKGKTDLITVAVEPTDSPVIAQALAGEEIKPGPHKIQGIGAGFIPGNLDLKLIDKVVGITNEEAISTARRLMEEEGILAGISSGAAVAAALKLQEDESFTNKNIVVILPSSGERYLSTALFADLFTEKELQQ |  | 0.89
